Columns and labels:
PPARG [1] = assay: Cell-based transactivation assay (PPRE-luciferase reporter co-transfected with PPARG in COS-1 cells); set-up: species or system human or mouse; settings: COS-1 cells
Protocol: (§1) Cell-Based Transactivation Assay:
(§2) PPRE is a DNA that contains a binding site for PPARG; thus PPRE is a PPAR response element, used herein as a promoter reporter. The binding site is a DR1 response element with the sequence AGGTCA repeated 3 times in tandem and then fused to a construct for luciferase.
(§3) Thus, PPRE is the basis of the cell based transactivation assay described below. The plasmid DNA is co-transfected along with a plasmid for PPARG into COS-1 cells. After an overnight incubation, cells are treated with DMSO or compounds.
(§4) Confluent COS-1 cells were transfected with 4.5 μg murine PPARg2-pSV Sport. or full-length human PPARg-pSport6, 4.5 μg 3×PPRE-luciferase reporter and 27 μL X-treme Gene 9 transfection reagent in serum-free opti-mem media (Gibco), followed by overnight incubation at 37° C., 5% CO2. Transfected cells were plated in white Perkin Elmer 384-well plates and incubated 4 hours. […] After 18 hour incubation, treated cells were developed with Brite Lite Plus (Perkin Elmer) and read in 384-well Luminescence Perkin Elmer En Vision Multilabel plate reader. Graphs were plotted in triplicate in GraphPad Prism Software as fold change of treated cells over DMSO control cells.

GST-PPARG-LBD = target: T1, GST-PPARG-LBD (Homo sapiens, UniProt P37231); assay: Lanthascreen PPARG competitive binding assay (Invitrogen); settings: Table 3; read-out: IC50 (nM) Lantha
T1 construct: A mixture of 5 nM GST-PPARG-LBD; purchased Invitrogen
T1 sequence (P37231 238-503 limits assumed): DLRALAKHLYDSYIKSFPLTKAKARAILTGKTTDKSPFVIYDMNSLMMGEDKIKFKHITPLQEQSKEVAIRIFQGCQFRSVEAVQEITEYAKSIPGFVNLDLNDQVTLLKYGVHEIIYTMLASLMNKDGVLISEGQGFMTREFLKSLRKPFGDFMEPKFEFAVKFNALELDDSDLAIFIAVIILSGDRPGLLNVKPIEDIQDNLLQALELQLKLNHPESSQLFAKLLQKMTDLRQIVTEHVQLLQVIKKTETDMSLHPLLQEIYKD
Protocol: Lanthascreen PPARG Competitive Binding Assay (Invitrogen)
The assay was performed according to manufacturer protocol. A mixture of 5 nM GST-PPARG-LBD, 5 nM Tb-GST-antibody, […] Pan-PPAR Green, and serial dilutions of the experimental compound, beginning at 10 μM downwards, was added to wells of black 384-well low-volume plates (Greiner) to a total volume of 18 μL. All dilutions were made in TR-FRET assay buffer C. DMSO at 2% final concentration was used as a no-ligand control. Experiment was performed in triplicate, and incubated tier 2 hours in the dark prior to assay read in Perkin Elmer ViewLux ultra HTS microplate reader. FRET signal was measured by excitation at 340 nm and emission at 520 nm for fluorescein and […] for terbium. Fold change over DMSO was calculated using GraphPad Prism Software (La Jolla, Calif.) by calculating 520 nm/490 nm ratio. Graphs were plotted as fold change of FRET signal for compound treatment over DMSO-only control.

PPARG [2] = target: T2, PPARG (UniProt P37231); assay: Cell-based transactivation assay (PPRE-luciferase reporter co-transfected with PPARG in COS-1 cells); set-up: species or system human or mouse
T2 construct: PPRE % act 1 μM; other: 1 μM
T2 sequence (P37231 1-505): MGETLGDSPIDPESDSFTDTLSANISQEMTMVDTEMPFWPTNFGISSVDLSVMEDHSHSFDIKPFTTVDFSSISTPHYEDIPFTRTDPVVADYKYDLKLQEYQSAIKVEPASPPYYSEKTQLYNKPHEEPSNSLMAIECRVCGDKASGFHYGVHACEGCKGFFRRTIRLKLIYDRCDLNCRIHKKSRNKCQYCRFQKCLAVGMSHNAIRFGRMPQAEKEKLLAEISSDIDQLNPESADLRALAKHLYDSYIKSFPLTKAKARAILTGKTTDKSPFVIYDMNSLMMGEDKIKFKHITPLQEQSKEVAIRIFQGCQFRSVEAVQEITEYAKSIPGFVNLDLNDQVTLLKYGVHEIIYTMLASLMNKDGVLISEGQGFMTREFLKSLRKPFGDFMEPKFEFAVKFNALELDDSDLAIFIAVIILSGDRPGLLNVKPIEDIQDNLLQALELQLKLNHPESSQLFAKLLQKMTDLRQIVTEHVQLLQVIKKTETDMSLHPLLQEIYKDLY
Protocol: as §1, §2, §3, §4

PPARG [3] = target: T3, PPARG (Homo sapiens, UniProt P37231); assay: Gal 4 assay (ED50 and % act); type: cell-based; settings: for activation at 1 µM: read-out: GL 4% act 1 μM; for activation at 10 µM: read-out: GL 4% act 10 μM
T3 sequence (P37231 204-505): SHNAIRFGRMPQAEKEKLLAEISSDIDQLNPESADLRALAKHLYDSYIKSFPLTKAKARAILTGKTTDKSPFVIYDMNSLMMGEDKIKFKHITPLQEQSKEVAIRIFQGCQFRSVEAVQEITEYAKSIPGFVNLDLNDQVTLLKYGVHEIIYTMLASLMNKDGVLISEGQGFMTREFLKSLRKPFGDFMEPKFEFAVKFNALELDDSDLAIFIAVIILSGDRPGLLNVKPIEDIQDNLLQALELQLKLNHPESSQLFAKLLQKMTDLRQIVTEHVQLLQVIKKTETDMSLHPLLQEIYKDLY

Molecule	IC50 (GST-PPARG-LBD) [nM]	further results
CN(CCOc1ccc(CC2SC(=O)NC2=O)cc1)c1ccccn1 (centres unmarked) [rosiglitazone, reference compound]		activation of the PPRE reporter (PPARG [1]): about 5 fold
CCOCCNC(=O)c1ccc2c(c1)ncn2Cc1ccc(-c2ccccc2C(=O)O)cc1 [Compound 16, 4′-((5-(2-ethoxyethylcarbamoyl)-1H-benzo[d]imidazol-1-yl)methyl)biphenyl-2-carboxylic acid]	9790	
CC(C)c1cccc([C@H](C)NC(=O)c2ccc3c(c2)ncn3Cc2ccc(-c3ccccc3C(=O)O)nc2)c1 [Compound 27, (S)-2-(5-((5-((1-(3-isopropylphenyl)ethyl)carbamoyl)-1H-benzo[d]imidazol-1-yl)methyl)pyridin-2-yl)benzoic acid]	8740	
CC(C)c1cccc([C@H](C)NC(=O)c2ccc3c(c2)ncn3Cc2ccc(-c3ccccc3CO)cc2)c1 [Compound 21, (S)-1-((2′-(hydroxymethyl)biphenyl-4-yl)methyl)-N-(1-(3-isopropylphenyl)ethyl)-1H-benzo[d]imidazole-5-carboxamide]	6490	
O=C(NCC1CC1)c1ccc2c(c1)ncn2Cc1ccc(-c2ccccc2C(=O)O)cc1 [Compound 17, 4′-((5 ((cyclopropylmethyl)carbamoyl)-1H-benzo[d]imidazol-1-yl)methyl)-[1,1′-biphenyl]-2-carboxylic acid]	22100	
CC(C)CCC(C)NC(=O)c1ccc2ncn(Cc3ccc(-c4ccccc4C(=O)O)cc3)c2c1 (centres unmarked) [Compound 20]	2550	
Cc1nc2cc(C(=O)N[C@@H](C)c3cccc(C(C)C)c3)ccc2n1Cc1ccc(-c2cccnc2C(=O)O)cc1 [Compound 29, (S)-3-(4-((5-(1-(3-isopropylphenyl)ethylcarbamoyl)-2-methyl-1H-benzo[d]imidazol-1-yl)methyl)phenyl)picolinic acid]	4800	
CC(C)c1cccc([C@H](C)NC(=O)c2ccc3c(c2)ncn3Cc2ccc(-c3ccccc3C(O)C(F)(F)F)cc2)c1 (stereo partly drawn) [Compound 26, N—((S)-1-(3-isopropylphenyl)ethyl)-1-((2′-(2,2,2-trifluoro-1-hydroxyethyl)biphenyl-4-yl)methyl)-1H-benzo[d]imidazole-5-carboxamide]	15700	
COCCCNC(=O)c1ccc2c(c1)ncn2Cc1ccc(-c2ccccc2C(=O)O)cc1 [Compound 15, 4′-((5-(3-methoxypropylcarbamoyl)-1H-benzo[d]imidazol-1-yl)methyl)biphenyl-2-carboxylic acid]	15000	
MRL24 [reference compound]		transactivation of the reporter, of rosiglitazone response (PPARG [1]; relative to rosiglitazone): about 25%
Cc1nc2cc(C(=O)N[C@@H](C)c3cccc(C(C)C)c3)ccc2n1Cc1ccc(-c2ccccc2C(O)C(F)(F)F)cc1 (stereo partly drawn) [Compound 25, N—((S)-1-(3-isopropylphenyl)ethyl)-2-methyl-1-((2′-(2,2,2-trifluoro-1-hydroxyethyl)biphenyl-4-yl)methyl)-1H-benzo[d]imidazole-5-carboxamide]	5470	
COC(=O)c1ccccc1-c1ccc(Cn2cnc3cc(C(=O)N[C@@H](C)c4cccc(C(C)C)c4)ccc32)cn1 [Compound 28, (S)-methyl 2-(5-((5-((1-(3-isopropylphenyl)ethyl)carbamoyl)-1H-benzo[d]imidazol-1-yl)methyl)pyridin-2-yl)benzoate]	9070	

Further molecules by falling IC50 (GST-PPARG-LBD), results first:

IC50 (GST-PPARG-LBD) [nM]	Molecule	further results
2430	CC(C)CCNC(=O)c1ccc2c(c1)ncn2Cc1ccc(-c2ccccc2C(=O)O)cc1 [Compound 18, 4′-((5-(isopentylcarbamoyl)-1H-benzo[d]imidazol-1-yl)methyl)-[1,1′-biphenyl]-2-carboxylic acid]	
2130	CC(C)c1cccc([C@H](C)NC(=O)c2ccc3c(c2)ncn3Cc2ccc(-c3cccnc3C(=O)O)cc2)c1 [Compound 24, (S)-3-(4-((5-(1-(3-isopropylphenyl)ethylcarbamoyl)-1H-benzo[d]imidazol-1-yl)methyl)phenyl)picolinic acid]	
1830	CC(C)c1cccc([C@H](C)NC(=O)c2ccc3c(c2)ncn3Cc2ccc(-c3ccccc3C(=O)O)cc2)c1 [Compound 22, (S)-4′-((5-(1-(3-isopropylphenyl)ethylcarbamoyl)-1H-benzo[d]imidazol-1-yl)methyl)biphenyl-2-carboxylic acid]	
683	CC(C)c1cccc([C@H](C)NC(=O)c2ccc3c(c2)ncn3Cc2ccc(-c3ccccc3C(=O)O)cc2)c1 [Compound 23]	PPRE % act 1 μM (PPARG [2]; 1 μM): −10.26%; EC50 (PPARG [2]; Table 3): 1.61 nM; activation at 1 µM (PPARG [3]): 12.9%
102	CC(C)CC(C)NC(=O)c1ccc2c(c1)ncn2Cc1ccc(-c2ccccc2C(=O)O)cc1 (centres unmarked) [Compound 14, 4′((5-((4-methylpentan-2-yl)carbamoyl)-1H-benzo[d]imidazol-1-yl)methyl)-[1,1′-biphenyl]-2-carboxylic acid]	activation at 1 µM (PPARG [3]): 7.71%; activation at 10 µM (PPARG [3]): 32.2%
26.7	CC(C)CCC(C)NC(=O)c1ccc2c(c1)ncn2Cc1ccc(-c2ccccc2C(=O)O)cc1 (centres unmarked) [Compound 13, 4′-((5-(5-methylhexan-2-ylcarbamoyl)-1H-benzo[d]imidazol-1-yl)methyl)biphenyl-2-carboxylic acid]	activation at 1 µM (PPARG [3]): 22.5%; activation at 10 µM (PPARG [3]): 60.5%
9.02	CC(C)CC(C)NC(=O)c1ccc2ncn(Cc3ccc(-c4ccccc4C(=O)O)cc3)c2c1 (centres unmarked) [Compound 19, 4′-((6-(4-methylpentan-2-ylcarbamoyl)-1H-benzo[d]imidazol-1-yl)methyl)biphenyl-2-carboxylic acid]	
